Experimental data as given in paper PMC11240878, “Synthesis, enzyme inhibition assay, and molecular modeling study of novel pyrazolines linked to 4-methylsulfonylphenyl scaffold: antitumor activity and cell cycle analysis” (RSC Advances, 2024).

Columns and labels:
[1] = system: 59 cancer cell lines; experiment: NCI 59 cancer cell line panel, single dose; format: cell-based, human; details: 10 μM single dose; for MG% (mean growth percent): 59 cell lines
[2] = system: HL-60(TB); experiment: NCI single-dose GI%, leukemia; format: cell-based, human; details: 10.0 μM in one dose
[3] = system: K-562; experiment: NCI single-dose GI%, leukemia; format: cell-based, human; details: K-562, leukemia; 10.0 μM in one dose
[4] = system: MOLT-4; experiment: NCI single-dose GI%, leukemia; format: cell-based, human; details: MOLT-4, leukemia; 10.0 μM in one dose
[5] = system: SR; experiment: NCI single-dose GI%, leukemia; format: cell-based, human; details: 10.0 μM in one dose
[6] = system: A549/ATCC; experiment: NCI single-dose GI%, NSC lung; format: cell-based, human; details: 10.0 μM in one dose
[7] = system: EKVX; experiment: NCI single-dose GI%, NSC lung; format: cell-based, human; details: 10.0 μM in one dose
[8] = system: NCI-H226; experiment: NCI single-dose GI%, NSC lung; format: cell-based, human; details: 10.0 μM in one dose
[9] = system: NCI-H522; experiment: NCI single-dose GI%, NSC lung; format: cell-based, human; details: 10.0 μM in one dose
[10] = system: MALME-3M; experiment: NCI single-dose GI%, melanoma; format: cell-based, human; details: 10.0 μM in one dose
[11] = system: UACC-257; experiment: NCI single-dose GI%, melanoma; format: cell-based, human; details: UACC-257, melanoma; 10.0 μM in one dose
[12] = system: UO-31; experiment: NCI single-dose GI%, renal; format: cell-based, human; details: UO-31, renal; 10.0 μM in one dose
[13] = system: HOP-62; experiment: NCI single-dose GI%, NSC lung; format: cell-based, human; details: HOP-62, NSC lung; 10.0 μM in one dose
[14] = system: NCI-H322M; experiment: NCI single-dose GI%, NSC lung; format: cell-based, human; details: 10.0 μM in one dose
[15] = system: HT29; experiment: NCI single-dose GI%, colon; format: cell-based, human; details: 10.0 μM in one dose
[16] = system: U251; experiment: NCI single-dose GI%, CNS; format: cell-based, human; details: 10.0 μM in one dose
[17] = system: OVCAR-8; experiment: NCI single-dose GI%, ovarian; format: cell-based, human; details: OVCAR-8, ovarian; 10.0 μM in one dose
[18] = system: SK-OV-3; experiment: NCI single-dose GI%, ovarian; format: cell-based, human; details: SK-OV-3, ovarian; 10.0 μM in one dose
[19] = system: CAKI-1; experiment: NCI single-dose GI%, renal; format: cell-based, human; details: CAKI-1, renal; 10.0 μM in one dose
[20] = system: TK-10; experiment: NCI single-dose GI%, renal; format: cell-based, human; details: TK-10, renal; 10.0 μM in one dose
[21] = system: BT-549; experiment: NCI single-dose GI%, breast; format: cell-based, human; details: BT-549, breast; 10.0 μM in one dose
[22] = system: T-47D; experiment: NCI single-dose GI%, breast; format: cell-based, human; details: 10.0 μM in one dose
[23] = system: RPMI-8226; experiment: NCI single-dose GI%, leukemia; format: cell-based, human; details: RPMI-8226, leukemia; 10.0 μM in one dose
[24] = system: HCT-116; experiment: NCI single-dose GI%, colon; format: cell-based, human; details: HCT-116, colon; 10.0 μM in one dose
[25] = system: SNB-75; experiment: NCI single-dose GI%, CNS; format: cell-based, human; details: SNB-75, CNS; 10.0 μM in one dose
[26] = system: SK-MEL-2; experiment: NCI single-dose GI%, melanoma; format: cell-based, human; details: SK-MEL-2, melanoma; 10.0 μM in one dose
[27] = system: UACC-62; experiment: NCI single-dose GI%, melanoma; format: cell-based, human; details: UACC-62, melanoma; 10.0 μM in one dose
[28] = system: PC-3; experiment: NCI single-dose GI%, prostate; format: cell-based, human; details: PC-3, prostate; 10.0 μM in one dose
[29] = system: MCF7; experiment: NCI single-dose GI%, breast; format: cell-based, human; details: 10.0 μM in one dose
[30] = system: MDA-MB-468; experiment: NCI single-dose GI%, breast; format: cell-based, human; details: MDA-MB-468, breast; 10.0 μM in one dose
[31] = system: HL-60 cells; experiment: Cell cycle analysis by flow cytometry; format: cell-based, human; details: at IC50 concentration
Procedure: Flow cytometry measures cell growth in different cell cycle phases (G0–G1, S, G2/M and pre-G1).[33,77] This study aimed to find out how the target compounds affect the growth of cancer cells by examining at how they change the cell cycle and cause apoptosis in HL-60 cells.
The cell cycle analysis was conducted similarly to our prior study, using the leukemia HL-60 cell line. The cells were stained with the DNA fluorochrome PI and analyzed using a FACSCalibur flow cytometer.[33,77]

[32] = system: COLO 205; experiment: NCI single-dose GI%, colon; format: cell-based, human; details: COLO 205, colon; 10.0 μM in one dose
[33] = system: HCT-15; experiment: NCI single-dose GI%, colon; format: cell-based, human; details: HCT-15, colon; 10.0 μM in one dose
[34] = system: A498; experiment: NCI single-dose GI%, renal; format: cell-based, human; details: 10.0 μM in one dose
[35] = system: KM12; experiment: NCI single-dose GI%, colon; format: cell-based, human; details: 10.0 μM in one dose
[36] = system: SK-MEL-5; experiment: NCI single-dose GI%, melanoma; format: cell-based, human; details: SK-MEL-5, melanoma; 10.0 μM in one dose
[37] = system: OVCAR-4; experiment: NCI single-dose GI%, ovarian; format: cell-based, human; details: OVCAR-4, ovarian; 10.0 μM in one dose
[38] = system: MDA-MB-231/ATCC; experiment: NCI single-dose GI%, breast; format: cell-based, human; details: 10.0 μM in one dose
[39] = system: SF-268; experiment: NCI single-dose GI%, CNS; format: cell-based, human; details: SF-268, CNS; 10.0 μM in one dose

SMILES	PCE (positive cytotoxic effect: ratio of cell lines with growth inhibition >10% to total cell lines) [1]	MG% (mean growth percent) [1] [%]	GI% [2] [%]	GI% [3] [%]	GI% [4] [%]	GI% [6] [%]	GI% [7] [%]	GI% [8] [%]	GI% [9] [%]	GI% [11] [%]	GI% [12] [%]	melting point [°C]	GI% [13] [%]	GI% [18] [%]	GI% [19] [%]	GI% [22] [%]	GI% [24] [%]	GI% [25] [%]	GI% [29] [%]	GI% [30] [%]	other results
CS(=O)(=O)c1ccc(C(=O)N2N=C(c3ccccc3)CC2c2ccccc2)cc1 (stereo not shown) [Compound 18a, (3,5-Diphenyl-4,5-dihydro-1H-pyrazol-1-yl)(4-(methylsulfonyl)phenyl)methanone]	11/59	98.11	32	19	32	18	11	11	18	14	12	259 to 261									GI% [5]: 13%; GI% [10]: 11%
CS(=O)(=O)c1ccc(C(=O)N2N=C(c3ccc(F)cc3)CC2c2ccccc2)cc1 (stereo not shown) [Compound 18d, (3-(4-Fluorophenyl)-5-phenyl-4,5-dihydro-1H-pyrazol-1-yl)(4-(methylsulfonyl)phenyl)methanone]	18/59	93.02	57	32	37	24	16		43	37	27	311 to 313	29	13	14	17					GI% [14]: 14%; GI% [15]: 14%; GI% [16]: 17%; GI% [17]: 15%; GI% [20]: 12%; GI% [21]: 15%
Cc1ccc(C2CC(c3ccccc3)=NN2C(=O)c2ccc(S(C)(=O)=O)cc2)cc1 (stereo not shown) [Compound 18f, (4-(Methylsulfonyl)phenyl)(3-phenyl-5-(4-tolyl)-4,5-dihydro-1H-pyrazol-1-yl)methanone]	21/59	93.80	14		30	16	13	17	37	26	24	225 to 227	12		16	16	20	20	11	15	GI% [23]: 18%; GI% [15]: 12%; GI% [16]: 11%; GI% [26]: 11%; GI% [27]: 12%; GI% [28]: 28%; phase of cell cycle arrest [31]: S/G2 phase
CS(=O)(=O)c1ccc(C(=O)N2N=C(c3ccccc3)CC2c2ccc3c(c2)OCO3)cc1 (stereo not shown) [Compound 18m, (5-(Benzo[d][1,3]dioxol-5-yl)-3-phenyl-4,5-dihydro-1H-pyrazol-1-yl)(4-(methylsulfonyl)phenyl)methanone]	18/59	91.96	63	40	48	20		11	13		34	155 to 157	17	16		22	18	12	16		GI% [32]: 19%; GI% [33]: 14%; GI% [34]: 14%; GI% [28]: 15%; GI% [21]: 14%
COc1ccc(C2=NN(C(=O)c3ccc(S(C)(=O)=O)cc3)C(c3ccccc3)C2)c(OC)c1 (stereo not shown) [Compound 18n, (3-(2,4-Dimethoxyphenyl)-5-phenyl-4,5-dihydro-1H-pyrazol-1-yl)(4-(methylsulfonyl)phenyl)methanone]	20/59	93.24	55	26	38		28	14	20		24	216 to 218	20		15	14	18	15	65	36	GI% [35]: 12%; GI% [26]: 18%; GI% [36]: 21%; GI% [37]: 12%; GI% [28]: 15%; GI% [38]: 12%
COc1ccc(C2=NN(C(=O)c3ccc(S(C)(=O)=O)cc3)C(c3ccc(OC)c(OC)c3)C2)c(OC)c1 (stereo not shown) [Compound 18p, (3-(2,4-Dimethoxyphenyl)-5-(3,4-dimethoxyphenyl)-4,5-dihydro-1H-pyrazol-1-yl)(4-(methylsulfonyl)phenyl)methanone]	11/59	97.33	31	23				15	13		25	169 to 171	26	16		25	17			13	GI% [39]: 11%
COc1ccc(C2=NN(C(=O)c3ccc(S(C)(=O)=O)cc3)C(c3cc(OC)c(OC)c(OC)c3)C2)cc1OC (stereo not shown) [Compound 18q, (3-(3,4-Dimethoxyphenyl)-5-(3,4,5-trimethoxyphenyl)-4,5-dihydro-1H-pyrazol-1-yl)(4-(methylsulfonyl)phenyl)methanone]	6/59	97.51									24	150 to 152			13			13	12	12	GI% [34]: 13%
